In patent US20230405078A1, “DETECTION AND TREATMENT OF INTESTINAL FIBROSIS” (THE REGENTS OF THE UNIVERSITY OF CALIFORNIA, priority 2020, published 2023):
Entries after “also recorded” stand apart in the source; their conditions may differ. Where no end group is shown, it is not given here.

Assays:
[1] = tested on: Human colonic CCD-18Co fibroblasts; assay: TGF-β1-induced fibrogenesis in CCD-18Co fibroblasts; format: cell-based
Method: (§1) Cleveland Clinic IRB directives (IRB #17-1167). Primary non-IBD patient-derived colonic fibroblasts (H6231) were purchased from Cell Biologics. All primary colonic fibroblasts were cultured in fibroblast medium (M2267, Cell Biologics). Human colonic CCD-18Co fibroblasts (ATCC) were cultured in minimal essential medium Eagle's medium (MEM) containing 10% fetal bovine serum and 1% penicillin-streptomycin 6, 20. All fibroblasts were grown to 80% confluence and then switched to serum-free media overnight for experiments.
For activation of protease-activated receptors (PARs), fibroblasts were pretreated with 0.8% DMSO, 10 μM PAR1 agonist TRAP-6 (HY-P0078, MCE), 10 μM PAR2 agonist SLIGKV-NH2 (Protease-Activated Receptor-2, amide, HY-P0283, MCE), or 0.4 μg/ml PAR2-activating protease recombinant cathepsin S (1183-CY-010, R&D Systems) for 30 minutes. For miR205-5p activation, fibroblasts were transfected with (30 picomoles/well) either control (YM00479902) or miR205-5p miRCURY LNA mimic (YM00472340) from Qiagen via Lipofectamine 3000 transfection reagent (L3000001, ThermoFisher) in Opti-MEM (#31985062, ThermoFisher) overnight. For miR205-5p inhibition, fibroblasts were pretreated with 50nM either control (Y100199006) or miR205-5p power inhibitors (Y104101508-DDA) from Qiagen overnight. For overexpression of zinc finger E-box homeobox 1 (ZEB1), fibroblasts were infected with […] infectious units/plate either control (PS100064V) or human ZEB1-overexpressing lentivirus (RC217704L1V) from Origene, Inc. overnight.
The fibroblasts were pretreated with either 0.1% TFA (vehicle), 10 ng/ml transforming growth factor-beta 1 (TGF-p1), or 100 μg/ml serum exosomes from stricturing CD (CDSE) patients for two hours to induce fibrogenesis, followed by incubation with elafin (AS-61641, Anaspec) for 2-24 hours. Serum exosomes from CD patients were used to mimic the chemical environment of CD [12]. At the end of the experiments, the cells were lysed with either RLT buffer for RNA experiments or radioimmunoprecipitation assay (RIPA) buffer for ProCOL1A1 (DY6220-05, R&D Systems), COL1A2 (MBS2701496, MyBioSource), ZEB1 (MBS774017, MyBioSource), or phosphorylated ERK1/2 (DYC1018B, R&D Systems) ELISAs.

[2] = tested on: primary stricturing CD patient-derived colonic fibroblasts; assay: Fibrogenesis in CDSE-treated primary stricturing CD patient-derived colonic fibroblasts; format: cell-based, human
Method: Stricturing CD patient-derived primary colonic fibroblasts (CD-HIFs) were obtained from Cleveland Clinic via material transfer agreement (MTA2020-00000154) and under
as §1
For activation of protease-activated receptors (PARs), fibroblasts were pretreated with 0.8% DMSO, 10 μM PAR1 agonist TRAP-6 (HY-P0078, MCE), 10 μM PAR2 agonist SLIGKV-NH2 (Protease-Activated Receptor-2, amide, HY-P0283, MCE), or 0.4 μg/ml PAR2-activating protease recombinant cathepsin S (1183-CY-010, R&D Systems) for 30 minutes. For miR205-5p activation, fibroblasts were transfected with (30 picomoles/well) either control (YM00479902) or miR205-5p miRCURY LNA mimic (YM00472340) from Qiagen via Lipofectamine 3000 transfection reagent (L3000001, ThermoFisher) in Opti-MEM (#31985062, ThermoFisher) overnight. […]

TNBS-treated mice = assay: TNBS-associated colonic fibrosis in mice; format: in vivo
Method: Eight-week-old male and female CD-1 mice (#022, Charles River Laboratories) were injected with 50pL TNBS solution (to induce colonic fibrosis) or 30% ethanol (vehicle) via enema weekly for five weeks. After the last TNBS injection, the mice were held for two additional weeks to develop colonic fibrosis. Some of the mice were injected with 5 μg/mouse of either control (PS100001) or elafin-expressing construct (RC203136) from
Origene via InvivoJetPEI transfection reagent (201-10G, Polyplus) intracolonically on the 9th day after the last TNBS injection or five days before the end of experiment.
Some of the mice received either a single intraperitoneal injection of 10 mg/kg anti-tumor necrosis factor-alpha (anti-TNFα) neutralizing antibody (6E0058, BioXCell) or oral antibiotic mixture in drinking water ad libitum from the 9th day after the last TNBS injection to the endpoint of the experiment. The antibiotics mixture contains kanamycin (0.4 mg/mL), gentamicin (0.035 mg/mL), colistin (850 U/mL), metronidazole (0.215 mg/mL), and vancomycin (0.045 mg/mL), which was routinely used by our laboratory for suppressing intestinal microbiota.
For PAR1/2 activation, some of the mice were injected with DMSO (50pL/mouse), 5 mg/kg PAR1 agonist TRAP-6, or 5 mg/kg PAR2 agonist SLIGKV-NH2 via enema on the 9th, 11th, and 13th days after the last TNBS injection.
For miRNA inhibition, some of the mice were injected with 5 mg/kg either control inhibitor or miR205-5p power inhibitor (Qiagen) […] via enema on the 9th, 11th, and 13th days after the last TNBS injection.
For Zeb1 manipulation, some mice received a single intraperitoneal injection (10^7 infectious units/mouse) of control lentivirus (PS100064V), Zeb1-overexpressing lentivirus (MR223095L2V), or Zeb1-shRNA lentivirus (TL513177V) from Origene, Inc. nine days after the last TNBS injection.
Dr. Xingguo Cheng produced the oral elafin-Eudragit-FS3OD formulation via a material transfer agreement (UCLA MTA2019-00000337) with the Southwest Research Institute (SWRI) in Texas. […] The mice were fed with either control-Eudragit or elafin-Eudragit in mildly acidified (pH 5) water containing 0.5% hydroxypropyl methylcellulose (HPMC) daily via oral gavage during the last five days of the experiment.
H&E and Masson Trichrome (MT) staining were performed as described previously. Microphotographs were recorded at multiple locations and scored by two investigators blindly. Intestinal injuries were scored (0-12). The severity of intestinal fibrosis was assessed by MT staining and scored (0-3). ZEB1 immunohistochemistry was performed using an anti-ZEB1 antibody (HPA027524, Sigma).
Total RNA was isolated by an RNeasy kit (#74104, Qiagen) and reverse transcribed into cDNA by a high-capacity cDNA reverse transcription kit (#4368813, ThermoFisher). PCR reactions were run with Taq Universal SYBR Green Supermix (1725120, Bio-Rad) and TaqMan real-time PCR assays (ThermoFisher) in a Bio-Rad CFX384 system. For the determination of miRNA expression, RNA was converted to cDNA using miRCURY LNA RT kit. PCR reactions were run with miRCURY LNA SYBR Green PCR kit and miRCURY LNA PCR assays (Qiagen). Relative mRNA/miRNA quantification was performed by comparing test groups and control groups after normalization with endogenous control genes. The fold changes are expressed as […]. […]
Overall disease activity (ODA) was calculated by % change of histology and fibrosis scores and colonic mRNA expression of fibrosis- and inflammation-related genes. […]

Substance | TGF-β1 induced COL1A2 and ProCOL1A1 protein expression ([1]; CCD-18Co, ELISA of cell lysates) | TGF-β1-induced COL1A2 (collagen) mRNA expression ([1]; TGF-β1 10 ng/ml, elafin (0.1-10 micrograms/ml) added two hours later, 24 hours) | ZEB1 mRNA and protein expression ([1]; TGF-β1-/CD serum-exosome-treated human colonic fibroblasts) | miR205-5p expression ([1]; TGF-β1-treated CCD-18Co fibroblasts) | miR205-5p expression ([1]; TGF-β1-treated CCD-18Co fibroblasts, listed as elafin) | ProCOL1A1 protein expression ([2]; CDSE-treated, Elafin 1 μg/ml) | overall disease activity (TNBS-treated mice; TNBS models) | effect on elafin-mediated miR205-5p induction and ZEB1 inhibition ([1]; TGF-β1-treated CCD-18Co fibroblasts, agonist 10 μM) | effect on elafin-mediated inhibition of collagen expression ([1]; TGF-β1-treated CCD-18Co fibroblasts, elafin 1 μg/ml) | effect on elafin-mediated inhibition of collagen expression ([2]; CDSE-conditioned primary human colonic fibroblasts) | colonic injury and fibrosis (TNBS-treated mice; TNBS-treated mice) | colonic miR205-5p expression (TNBS-treated mice; TNBS-treated mice) | effect on elafin-mediated inhibition of colonic injury, fibrosis and fibrogenic gene expression (TNBS-treated mice; TNBS-treated mice with intracolonic elafin overexpression)
Elafin: small (6 kDa) human elastase-specific protease inhibitor and antimicrobial peptide; active form SEQ ID NO: 2 (AQEPVKGPVSTKPGSCPIILIRCAMLNPPNRCLKDTDCPGIKKCCEGSCGMACFVPQ; listed as Homo sapiens) | reversed | significantly reduced; also recorded: reversed | decreased; also recorded: diminished | increased | significantly increased | inhibited | 7-11% | – | – | – | – | – | –
SLIGKV-NH2 [PAR2 agonist, reference compound] | – | – | – | – | – | – | – | reversed | reversed | reversed | did not affect | diminished | reversed
